The values below are quoted from earlier work in patent publication US20250051276A1 (priority 2021, published 2025).

Data set [1] has as its system 5HT2A sensor. The conditions noted are these: cited from earlier work.
Data set [2] concerns 5HT2A sensor. Conditions: cited from earlier work. The source holds these as a separate data set.
Another data set has as its system mice. Conditions: hallucinogenic potential; cited from earlier work.

`COc1ccc2c(CCN(C)C)c[nH]c2c1` [Compound 6-MeO-DMT, 6-MeO-DMT]: the “activation of the 5HT2A sensor assay in agonist mode” value (“activation of the 5HT2A sensor assay” for short) in the data set with 5HT2A sensor [1] is recorded as “do not activate the 5HT2A sensor assay in agonist mode”. The “competition with 5-HT in the 5HT2A sensor assay in antagonist mode” value (“competition with 5-HT” for short) in the data set on 5HT2A sensor [2] was “compete off 5-HT”. Moreover, the “head-twitch response (HTR)” value in the data set with mice is on record as “does not produce a HTR”.

`O=C(c1ccc(F)cc1)C1CCN(CCn2c(=O)[nH]c3ccccc3c2=O)CC1` [Ketanserin]: the “activation of the 5HT2A sensor assay” value in the data set on 5HT2A sensor [1] is reported as “do not activate the 5HT2A sensor assay in agonist mode”. For the same compound, the “competition with 5-HT” value with 5HT2A sensor [2] was “can compete with 5HT binding to 5HT2A”.

Consider `COc1ccc2[nH]cc(CCN(C)C)c2c1` [Compound 5-MeO-DMT, 5-MeO-DMT], for which the “activation of the 5HT2A sensor assay” value with 5HT2A sensor [1] is reported as “activate the 5HT2A sensor assay in agonist mode”. In addition, the “head-twitch response (HTR)” value in the data set on mice was “produces a robust, dose-dependent head-twitch response”.

For the compound `COc1cc(CC(C)N)c(OC)cc1I` (stereo not shown) [DOI], the “activation of the 5HT2A sensor assay” value in the data set on 5HT2A sensor [1] is on record as “activate the 5HT2A sensor assay in agonist mode”.

Consider `CCN(CC)CCc1c[nH]c2cc(F)ccc12` [Compound 6-F-DET, 6-F-DET], for which the “activation of the 5HT2A sensor assay” value in the data set on 5HT2A sensor [1] is on record as “do not activate the 5HT2A sensor assay in agonist mode”. The “competition with 5-HT” value in the data set on 5HT2A sensor [2] is listed as “can compete with 5HT binding to 5HT2A”.

On to `CCN(CC)C(=O)[C@@H]1C=C2c3cccc4[nH]c(Br)c(c34)C[C@H]2N(C)C1` [BOL148], for which the “activation of the 5HT2A sensor assay” value in the data set with 5HT2A sensor [1] was “do not activate the 5HT2A sensor assay in agonist mode”. In addition, the “competition with 5-HT” value in the data set with 5HT2A sensor [2] is “can compete with 5HT binding to 5HT2A”.

On to `CN[C@H](C)Cc1ccc2c(c1)OCO2` [L-MDMA], for which the “activation of the 5HT2A sensor assay” value with 5HT2A sensor [1] was “do not activate the 5HT2A sensor assay in agonist mode”.
